Assay results reported in patent publication US20100130725A1, “METHODS FOR CHARACTERIZING MOLECULES” (priority 2008, published 2010).

Columns and labels:
[1] = tested on: quiescent A431 cells; assay: Epic RWG biosensor DMR assay, agonist mode (primary profile), quiescent A431 cells; format: cell-based, human
Procedure: All cell lines were obtained from American Type Cell Culture (Manassas, Va.). The cell culture medium was as follows: Dulbecco's modified Eagle's medium (DMEM) supplemented with 10% fetal bovine serum (FBS), 4.5 g/liter glucose, 2 mM glutamine, and antibiotics for human epidermoid carcinoma A431 and human lung carcinoma A549.
Cells were typically grown using ˜1 to 2×10^4 cells per well at passage 3 to 15 suspended in 50 μl of the corresponding culture medium in the biosensor microplate, and were cultured at 37° C. under air/5% CO2 for ˜1 day. Except for A431, which was subject to ˜20 hr starvation through continuous culture in the serum-free DMEM, the other cell types were directly assayed without starvation. The confluency for all cells at the time of assays was ˜95% to 100%.
Epic® wavelength interrogation system (Corning Inc., Corning, N.Y.) was used for whole cell sensing. This system consists of a temperature-control unit, an optical detection unit, and an on-board liquid handling unit with robotics. The detection unit is centered on integrated fiber optics, and enables kinetic measures of cellular responses with a time interval of ˜15 sec.
The RWG biosensor is capable of detecting minute changes in local index of refraction near the sensor surface. Since the local index of refraction within a cell is a function of density and its distribution of biomass (e.g., proteins, molecular complexes), the biosensor exploits its evanescent wave to non-invasively detect ligand-induced dynamic mass redistribution in native cells. […]
For biosensor cellular assays, molecule solutions were made by diluting the stored concentrated solutions with the HBSS (1× Hanks balanced salt solution, plus 20 mM Hepes, pH 7.1), and transferred into a 384 well polypropylene molecule storage plate to prepare a molecule source plate. […] Both the cell assay plate and the molecule and marker source plate(s) were then incubated in the hotel of the reader system. After ˜1 hr of incubation the baseline wavelengths of all biosensors in the cell assay microplate were recorded and normalized to zero. […]

[2] = tested on: A431 cells; assay: EGF-induced DMR signal in partially quiescent A431 cells (20 hr in 0.1% fetal bovine serum); format: cell-based, human; conditions: partially quiescent A431, 20 hour starvation in 0.1% fetal bovine serum
From the text: EGFR belongs to the family of receptor tyrosine kinases. EGF binds to and stimulates the intrinsic protein-tyrosine kinase activity of EGFR, initiating a signal transduction cascade, principally involving the MAPK, […] and JNK pathways. Upon EGF stimulation, there are many events leading to mass redistribution in A431 cells—a cell line endogenously over-expressing EGFRs. It is known that EGFR signaling depends on cellular status. As a result, the EGF-induced DMR signals are also dependent on the cellular status. In quiescent cells obtained through 20 hr culturing in 0.1% fetal bovine serum, EGF stimulation leads to a DMR signal with three distinct and sequential phases: (i) a positive phase with increased signal (P-DMR), (ii) a transition phase, and (iii) a decay phase (N-DMR). […]
An Epic® cellular assay was conducted on partially quiescent A431 cells obtained through 1 day culture with serum containing medium followed by 20 hour starvation culturing in a medium containing 0.1% fetal bovine serum. […] Chemical biology and cell biology studies have shown that this EGF-induced DMR signal is primarily linked to the Ras/MAPK pathway, which proceeds through MEK and leads to cell detachment (Fang, Y., et al., (2005) “Characteristics of dynamic mass redistribution of EGF receptor signaling in living cells measured with label free optical biosensors”. Anal. Chem., 77, 5720-5725).

epidermal growth factor [EGF]
EC80 for triggering the DMR signal ([1]; fully quiescent A431 cells): ~32 nM | DMR signal triggered by EGF ([1]; fully quiescent A431 cells, EGF 32 nM, average of 32 replicates): distinct and robust DMR signal | DMR response as a function of EGF dose ([1]; quiescent A431 cells, data not shown): dose-dependent response | DMR signal triggered by EGF [2]: DMR signal with two distinct and sequential phases
